Data taken from PubChem BioAssay (NCI).
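Each compound was tested at five concentrations against cells in 96-well plates for 48 hours. TGI: total growth inhibition.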

Columns and labels:
Assay in all cases: inhibition of tumour cell growth, NCI panel, 48 h
[1] = system: KM12 colon
[2] = system: SN12C renal
[3] = system: EKVX NSCLC
[4] = system: SW-620 colon
[5] = system: K-562 leukemia
[6] = system: HOP-62 NSCLC
[7] = system: SK-MEL-5 melanoma
[8] = system: HCT-116 colon
[9] = system: MCF7 breast
[10] = system: NCI-H460 lung
[11] = system: ACHN renal
[12] = system: HS 578T breast
[13] = system: IGROV1 ovarian
[14] = system: SK-OV-3 ovarian
[15] = system: MDA-MB-435
[16] = system: HCT-15 colon
[17] = system: T-47D breast
[18] = system: TK-10 renal
[19] = system: MDA-N
[20] = system: 786-0 renal
[21] = system: UACC-257 melanoma
[22] = system: CAKI-1 renal
[23] = system: SNB-19 CNS
[24] = system: SF-295 CNS
[25] = system: RXF 393 renal
[26] = system: MDA-MB-231 breast
[27] = system: NCI/ADR-RES ovarian
[28] = system: PC-3 prostate
[29] = system: UO-31 renal
[30] = system: MALME-3M melanoma
[31] = system: SK-MEL-28 melanoma
[32] = system: NCI-H226 lung
[33] = system: HT29 colon
[34] = system: OVCAR-3 ovarian
[35] = system: OVCAR-4 ovarian
[36] = system: MOLT-4 leukemia
[37] = system: BT-549 breast
[38] = system: NCI-H23 lung
[39] = system: M14 melanoma
[40] = system: OVCAR-8 ovarian
[41] = system: SF-268 CNS
[42] = system: UACC-62 melanoma
[43] = system: SNB-75 CNS
[44] = system: SK-MEL-2 melanoma
[45] = system: HCC-2998 colon
[46] = system: A549 NSCLC
[47] = system: RPMI-8226 leukemia
[48] = system: U251 CNS
[49] = system: OVCAR-5 ovarian
[50] = system: NCI-H522 lung
[51] = system: DU-145 prostate
[52] = system: CCRF-CEM leukemia
[53] = system: COLO 205 colon
[54] = system: LOX IMVI melanoma
[55] = system: A498 renal
[56] = system: HOP-92 NSCLC
[57] = system: SR leukemia
[58] = system: SF-539 CNS
[59] = system: HL-60(TB) leukemia

Measured: TGI

CC1CC(=O)Nc2ccc(N=NN(C)C)cc2N1C=O (configuration not stated)
not listed: [54] | [55] | [56] | [57] | [58] | [59]
> 100 µM: all other assays above

O=C(O)C1C(=O)Oc2c(cccc2[N+](=O)[O-])C1O (configuration not stated)
not listed: [1] | [9] | [14] | [29]
> 100 µM: all other assays above

Cn1c(N=[N+]=[N-])cc(=O)n(C)c1=O
not listed: [9] | [31] | [43] | [51] | [59]
> 100 µM: all other assays above
